Assay results reported in patent US7662852B2, “Compounds and preparations having antiviral effect” (Lead Chemical Co., Ltd., priority 2003, dated 2010).

Experiments:
[1] = test system: HIV-1 IIIB; conditions: for Anti-HIV Activity EC50: MT-4 cell infected with T-cell tropic strain HIV-1 IIIB, MOI 0.01, 5 days, MTT; for Safety Index S.I. CC50/EC50 / anti-HIV activity in vitro (in words): MT-4 cell, HIV-1 IIIB
Protocol: (§1) For this experiment, human T-cell leukemia virus I (HTLV-I) infected T cell strain, MT-4 cell and T cell leukemia cell strain, MOLT-4 (clone No. 8) cell, HIV-1 continuous infection cell, MOLT-4/IIIB cell were used. The cell was cultured in RPMI-1640 medium (SIGMA) supplemented with 10% inactivated fetal calf plasma (FCS) (MOREGATE, Australia), 100 μg/ml streptomycin and 100 U/ml penicillin G (SIGMA) under a condition of 5% CO2 and 37° C. Subculture was performed every three days by controlling the density to 30×10^4 cells/ml.
HIV-1 IIIB was prepared from the supernatant of MOLT-4/IIIB cell.
MOLT-4/IIIB cell was controlled to a density of 30×10^4 cells/ml and then the culture was started. The cultured liquid was collected three days later, and centrifuged at 3000 rpm for 10 minutes at 4° C. […] These supernatants were passed through 0.45 μm filter. The virus stocks were frozen and stored at −80° C. The amount of virus was adjusted depending on an amount of p24.
• 1) in vitro activity: A phorbol derivative was dissolved in an amount of 1.0 mg in 1.0 ml of DMSO to obtain a concentrated solution.
(§2) The anti-HIV activity of each sample to be tested was evaluated by measuring inhibition activity against cytopathogenicity induced by HIV-1 according to MTTassay. The assay was performed in a triplicate mode, and anti-HIV activity and cytotoxicity were measured simultaneously.
(§3) 96-well plate was used, 10% FCS/RPMI-1640 medium was added in inner 60 wells in an amount of 100 μl/well, and in outer 36 wells in an amount of 200 μl/well in order to prevent evaporation.
(§4) The samples to be tested that were adjusted with RPMI-1640 medium were added in an amount of 25 μl/well in the first lane of the inner 60 wells, and 5-fold stepwise dilution series were prepared by manipulating pipette. In addition, in the last lane, no sample to be tested was added and regarded as control. MT-4 cell suspended in 30×10^4 cells/ml was prepared in two flasks, and the cells in one flask were infected with HIV-1 IIIB in a multiplicity of infection (MOI) of 0.01. The infected or non-infected MT-4 cells were immediately added to samples to be tested in an amount of 100 μl/ml, and cultured under a condition of 5% CO2 and 37° C.
5 days later, the viability of cells was measured based on MTT method by use of Titertek Multiskan.

[2] = test system: MT-4 cell; conditions: non-infected MT-4 cell, 5 days, MTT
Protocol: as §1, §2, §3, §4
5 days later, the viability of cells was measured based on MTT method by use of Titertek Multiskan. MTT adjusted to 7.5 mg/ml with PBS (Ca++, Mg++*free phosphate-buffered saline) was added in an amount of 20 μl/well, and cultured under a condition of 5% CO2 and 37° C., 150 μl of the cultured supernatant was removed and then 100 μl of cytolysis solution (5% (v/v)TritonX-100/acid isopropanol) was added and stirred on a plate mixer for 30 minutes.
The absorbance (reference wavelength: 690 nm) was determined with a plate reader at 540 nm. […] Further, ratio of CC50 to EC50, that is, selective index (SI=CC50/EC50) was calculated.

[3] = test system: HIV-1 JRCSF; conditions: NPB-11 1 ng/ml, PBMC infected with HIV-1 JRCSF, 7 days
Protocol: JRCSF was obtained by culturing 293T cell transfected with 15 μg of virus DNA and collecting the cultured liquid two days later. These supernatants were passed through 0.45 μm filter. The virus stocks were frozen and stored at −80° C. The amount of virus was adjusted depending on an amount of p24.
The infection to peripheral blood mononuclear cells (PBMC) of JRCSF and the evaluation of the anti-HIV activity were performed as follows. 1×10^6 cells/ml of PBMC was inoculated with JRCSF having 20 ng of p24, and the cells were washed 2 hours later. Thereafter, the cells were cultured in a culture liquid containing an agent to be tested for 7 days, and the antiviral activity was detected by measuring p24.
The anti-HIV effect was evaluated by determining the amount of p24 that is one of viral gap proteins and calculating its reduced amount.

[4] = mouse plasma 37° C. 30 min / living organism
Protocol: (§5) • 1) in vitro activity: A phorbol derivative was dissolved in an amount of 1.0 mg in 1.0 ml of DMSO to obtain a concentrated solution. A sample to be tested was prepared by diluting the concentrated solution with a saline or a phosphate buffer to a predetermined concentration. • 2) stability in blood: 1 ml of blood from the abdominal aorta of 6- to 7-week-old BALB/c male mouse was withdrawn in an injector in which 0.1 ml of 3.8% sodium citrate was contained, and centrifuged at 5000 rpm for 10 minutes to obtain a plasma. The plasma was added in a solution to be tested in a proportion of 9:1 to prepare a diluted solution to be tested in a predetermined concentration of 10-fold dilution. The diluted solution was incubated at 37° C. for 30 minutes to prepare a sample to be tested. • 3) in situ activity: the above-mentioned sample to be tested 1) was orally administered to 6- to 7-week-old BALB/c male mouse in a dose of 1 mg/kg, at 20, 40 and 60 minutes after the administration, blood was withdrawn from the abdominal aorta under light anesthetization similarly to those of the 2) above, and the plasma from the blood was used as a sample to be tested.

[5] = 30 min
Protocol: as §5

Compound	Anti-HIV Activity EC50 [1]	Safety Index S.I. CC50/EC50 [1]	anti-HIV activity in vitro (in words) [1]	Cytotoxicity CC50 [2] [µg/mL]	amount of viral protein p24 (antiviral effect) [3]	Biological Stability [4]	Heat Stability 56° C., 30′ [5]
CCCCCCCCCC(=O)OC12C(OC(=O)CC)C(C)C3(O)C(C=C(CO)CC4(O)C(=O)C(C)=CC43)C1C2(C)C (centres unmarked) [NPB-5]	>1000 ng ng/ml	125<	lowered in the activity	125			
CCCCCCCCCC(=O)OC12C(OC(=O)CCC)C(C)C3(O)C(C=C(CO)CC4(O)C(=O)C(C)=CC43)C1C2(C)C (centres unmarked) [NPB-9]	>1000 ng ng/ml	125<	lowered in the activity	125			
CCCCCCCCCC(=O)OC12C(OCOC)C(C)C3(O)C(C=C(CO)CC4(O)C(=O)C(C)=CC43)C1C2(C)C (centres unmarked) [NPB-11]	1.7 ng/mL	4066	strong activity	6.9123	little viral protein was detected		
CCCCCCCCCC(=O)OC12C(OC)C(C)C3(O)C(C=C(CO)CC4(O)C(=O)C(C)=CC43)C1C2(C)C (centres unmarked) [NPB-13]	118.9 ng/mL	39	weak activity	4.6173		Stable	
CCCCCCCCCC(=O)OC12C(OCC)C(C)C3(O)C(C=C(CO)CC4(O)C(=O)C(C)=CC43)C1C2(C)C (centres unmarked) [NPB-14]	195.7 ng/mL	17	weak activity	3.3240		Stable	unstable to heat compared with NPB-11
CCCCCCCCCC(=O)OC12C(OC(C)=O)C(C)C3(O)C(C=C(CO)CC4(O)C(=O)C(C)=CC43)C1C2(C)C (centres unmarked) [Sample N-6, reference compound]	1.7 ng/mL	1920	extremely strong anti-HIV activity	3.2638			Stable
